Experimental data from ChEMBL document CHEMBL5214953, “Structure-activity-relationship study of semi-synthetically modified fusicoccins on their stabilization effect for 14-3-3-phospholigand interactions” (Bioorg Med Chem, 2022).
Active and inactive are the calls of the source. No cut-off for these calls is given here.

Key:
[1] = Stabilization of mode-1 phosphopeptide FAM-KRSHpSVP binding to recombinant 14-3-3 zeta (unknown origin) measured by fluorescence polarization assay; parameters: species or system Homo sapiens
[2] = Stabilization of mode-3 phosphopeptide FAM-KRSHpSV binding to recombinant 14-3-3 zeta (unknown origin) measured by fluorescence polarization assay; parameters: species or system Homo sapiens
[3] = system: HEK293; experiment: Antiproliferative activity against human HEK293 cells at 5 to 80 uM measured after 48 hrs by WST assay; type: functional, cell-based; settings: dose 5-80 µM
[4] = system: HL-60; experiment: Antiproliferative activity against human HL-60 cells measured after 48 hrs by WST assay; type: functional, cell-based; settings: HL-60, 48 h
[5] = system: HL-60; experiment: Antiproliferative activity against human HL-60 cells at 5 to 80 uM measured after 48 hrs by WST assay; type: functional, cell-based; settings: dose 5-80 µM

Kd [1] [nM]	Kd [2] [nM]	IC50 [4] [nM]	SMILES	Activity [3]	Activity [5]
		10000	COC[C@H]1CC[C@@H]2/C1=C\[C@@]1(C)CCC(C(C)C)=C1[C@@H](O[C@H]1O[C@@H]3CO[C@@H](OCCCN)[C@@H]3[C@H]1O)[C@H](O)[C@@H]2C		
680	600		C=CC(C)(C)OC[C@H]1O[C@H](O[C@@H]2C3=C(C(C)C)C[C@H](OCc4ccc(C(=O)OC)cc4)[C@]3(C)/C=C3/[C@@H](COC)CC[C@H]3[C@@H](C)[C@H]2O)[C@H](O)[C@@H](O)[C@@H]1O		
620	320		C=CC(C)(C)OC[C@H]1O[C@H](O[C@@H]2C3=C(C(C)C)C[C@H](OCc4ccc(N=[N+]=[N-])cc4)[C@]3(C)/C=C3/[C@@H](COC)CC[C@H]3[C@@H](C)[C@H]2O)[C@H](O)[C@@H](O)[C@@H]1O		
660	530		C=CC(C)(C)OC[C@H]1O[C@H](O[C@@H]2C3=C(C(C)C)C[C@H](OCc4ccccc4C(=O)OC)[C@]3(C)/C=C3/[C@@H](COC)CC[C@H]3[C@@H](C)[C@H]2O)[C@H](O)[C@@H](O)[C@@H]1O		
310	250	< 5000	COC[C@H]1CC[C@@H]2/C1=C\[C@@]1(C)CCC(C(C)C)=C1[C@@H](O[C@H]1O[C@H](CNCc3ccccc3)[C@@H](O)[C@H](O)[C@H]1O)[C@H](O)[C@@H]2C		
750			CCOC[C@H]1CC[C@@H]2/C1=C\[C@@]1(C)CCC(C(C)C)=C1[C@@H](O[C@H]1O[C@@H]3COC(C)(C)O[C@H]3[C@H](O)[C@H]1O)[C@H](O)[C@@H]2C		
650			CC(C)C1=C2[C@@H](O[C@H]3O[C@@H]4COC(C)(C)O[C@H]4[C@H](O)[C@H]3O)[C@H](O)[C@H](C)[C@@H]3CC[C@H](COC(F)(F)F)/C3=C/[C@@]2(C)CC1		
60	70		COC[C@H]1CC[C@@H]2/C1=C\[C@@]1(C)CCC(C(C)C)=C1[C@@H](O[C@H]1O[C@H](CN)[C@@H](O)[C@H](O)[C@H]1O)[C@H](O)[C@@H]2C		Active
110	44		COC[C@H]1CC[C@@H]2/C1=C\[C@@]1(C)CCC([C@H](C)CNC(C)=O)=C1[C@@H](O[C@H]1O[C@@H]3COC(C)(C)O[C@H]3[C@H](O)[C@H]1O)[C@H](O)[C@@H]2C	Active	
680	480		C=CC(C)(C)OC[C@H]1O[C@H](O[C@@H]2C3=C(C(C)C)C[C@H](OCc4ccccc4N=[N+]=[N-])[C@]3(C)/C=C3/[C@@H](COC)CC[C@H]3[C@@H](C)[C@H]2O)[C@H](O)[C@@H](O)[C@@H]1O		
110	41		COC[C@H]1CC[C@@H]2/C1=C\[C@@]1(C)CCC([C@H](C)CNC(=O)C3CC3)=C1[C@@H](O[C@H]1O[C@@H]3COC(C)(C)O[C@H]3[C@H](O)[C@H]1O)[C@H](O)[C@@H]2C	Active	
130	32		COC[C@H]1CC[C@@H]2/C1=C\[C@@]1(C)CCC([C@H](C)CNC(=O)C3CCCCC3)=C1[C@@H](O[C@H]1O[C@@H]3COC(C)(C)O[C@H]3[C@H](O)[C@H]1O)[C@H](O)[C@@H]2C	Active	

Further lines, the compound ahead of its results:

SMILES	Kd [1] [nM]	Kd [2] [nM]	IC50 [4] [nM]	Activity [3]	Activity [5]
COC[C@H]1CC[C@@H]2/C1=C\[C@@]1(C)CCC([C@H](C)CNC(=O)C(F)(F)F)=C1[C@@H](O[C@H]1O[C@@H]3COC(C)(C)O[C@H]3[C@H](O)[C@H]1O)[C@H](O)[C@@H]2C	80	42		Active	
CC(C)OC[C@H]1CC[C@@H]2/C1=C\[C@@]1(C)CCC(C(C)C)=C1[C@@H](O[C@H]1O[C@@H]3COC(C)(C)O[C@H]3[C@H](O)[C@H]1O)[C@H](O)[C@@H]2C	680				
COC[C@H]1CC[C@@H]2/C1=C\[C@@]1(C)CCC(C(C)C)=C1[C@@H](O[C@H]1O[C@@H]3COC(C)(C)O[C@H]3[C@H](O)[C@H]1O)[C@H](O)[C@@H]2C	230	96		Active	
C=CC(C)(C)OC[C@H]1O[C@H](O[C@@H]2C3=C(C(C)C)C[C@H](OCc4ccc(C#N)cc4)[C@]3(C)/C=C3/[C@@H](COC)CC[C@H]3[C@@H](C)[C@H]2O)[C@H](O)[C@@H](O)[C@@H]1O	710	380			
C=CC(C)(C)OC[C@H]1O[C@H](O[C@@H]2C3=C(C(C)C)C[C@H](O)[C@]3(C)/C=C3/[C@@H](COC)CC[C@H]3[C@@H](C)[C@H]2O)[C@H](O)[C@@H](O)[C@@H]1O	430	77			
CCCNC[C@H]1O[C@H](O[C@@H]2C3=C(C(C)C)CC[C@]3(C)/C=C3/[C@@H](COC)CC[C@H]3[C@@H](C)[C@H]2O)[C@H](O)[C@@H](O)[C@@H]1O	160	120			Active
C=CC(C)(C)OC[C@H]1O[C@H](O[C@@H]2C3=C(C(C)C)C[C@H](OCc4ccccc4C(=O)O)[C@]3(C)/C=C3/[C@@H](COC)CC[C@H]3[C@@H](C)[C@H]2O)[C@H](O)[C@@H](O)[C@@H]1O	540	480			
C=CC(C)(C)OC[C@H]1O[C@H](O[C@@H]2C3=C(C(C)C)C[C@H](OCc4ccc(C(=O)O)cc4)[C@]3(C)/C=C3/[C@@H](COC)CC[C@H]3[C@@H](C)[C@H]2O)[C@H](O)[C@@H](O)[C@@H]1O	470	390			
C=CC(C)(C)OC[C@H]1O[C@H](O[C@@H]2C3=C([C@H](C)CNC(C)=O)C[C@H](O)[C@]3(C)/C=C3/[C@@H](COC)CC[C@H]3[C@@H](C)[C@H]2O)[C@H](O)[C@@H](O)[C@@H]1O	170	38			
